# How the values were obtained:
# [1] = molecular target: T1, vitamin D binding protein (DBP) (Homo sapiens, UniProt P02774); assay: Screening of dissociation buffer components (release reagents) in the 25OHD ELISA; assay type: biochemical; details: component of dissociation buffer
# T1 sequence (P02774 17-474): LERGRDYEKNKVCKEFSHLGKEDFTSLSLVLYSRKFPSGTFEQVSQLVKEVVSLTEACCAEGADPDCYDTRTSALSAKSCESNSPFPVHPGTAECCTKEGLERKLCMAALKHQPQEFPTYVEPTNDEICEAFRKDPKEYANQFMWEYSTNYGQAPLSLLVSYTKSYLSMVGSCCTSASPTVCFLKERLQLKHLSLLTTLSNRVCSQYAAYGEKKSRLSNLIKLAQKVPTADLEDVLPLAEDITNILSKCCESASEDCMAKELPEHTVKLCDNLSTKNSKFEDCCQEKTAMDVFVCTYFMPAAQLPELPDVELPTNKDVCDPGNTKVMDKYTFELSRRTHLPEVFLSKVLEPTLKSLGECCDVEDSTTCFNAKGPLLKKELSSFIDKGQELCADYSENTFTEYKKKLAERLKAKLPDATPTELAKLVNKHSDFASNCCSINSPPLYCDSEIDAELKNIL
# Description: In order to optimize the ELISA 25OHD assay, components of the dissociation buffer, the assay buffer and the wash buffer, and conditions for performing various steps in the protocol were tested in the assay. Various reagents were tested alone or in combination for their effects on dissociation of 25OHD from DBP.
# In addition, various types and concentrations of buffer salts (e.g., Tris, MES, citrate) were used in the dissociation buffers, assay buffers and wash buffers. Dissociation and wash buffers having a pH from 4-8 were tested. Dissocation was performed at different temperatures (RT, 37° C., 65° C.) and in different incubation vessels (polypropylene or polystyrene) and the competitive ELISA was performed using various different 25OHD conjugates.
# [2] = assay type: physicochemical
# [3] = molecular target: T1, vitamin D binding protein (DBP); assay: Release of bound 25OHD3 from DBP in serum samples at varied release reagent concentrations (ELISA); assay type: biochemical; design: from tissue; host or cells: human serum; details: for percent inhibition by released 25OHD: vs controls with no 25OHD
# Description: Each buffer was diluted to provide dissociation buffers with multiple concentrations of a single release reagent.
# [4] = molecular target: T1, vitamin D binding protein (DBP); assay: as above; assay type: biochemical; design: human serum containing 20 or 40 ng/mL 25OHD3 were treated with the various dissociation buffers; from tissue; host or cells: human serum; details: major release reagents in combination
smiles,measurement,setting,value
CCCC[n+]1ccc(C)cc1.[Cl-],release of 25OHD from DBP and maintaining 25OHD availability for antibody binding,[1],effective and generally compatible with the assay
same,stability of dissociation buffer,[2],stable and could be stored at room temperature for weeks with no change in efficacy in the assay
same,percent inhibition by released 25OHD,"[3]; 20 ng/mL 25OHD3 serum sample, high end of 6-14% reagent range",25%
same,percent inhibition by released 25OHD,"[3]; 20 ng/mL 25OHD3 serum sample, low end of 6-14% reagent range",12%
same,percent inhibition by released 25OHD,"[3]; 40 ng/mL 25OHD3 serum sample, high end of 6-14% reagent range",34%
same,percent inhibition by released 25OHD,"[3]; 40 ng/mL 25OHD3 serum sample, low end of 6-14% reagent range",16%
same,best percentage of individual release reagent (greatest gains in 25OHD release),[3]; single release reagent in dissociation buffer,14%
same,optimal concentration for dissociation buffer formulation,[4],about 10%
